{
  "source": "paper PMC7028431",
  "about": "(Science (New York, N.Y.), 2019)",
  "biological_target": "GluER (Gluconobacter oxydans, UniProt Q5FTL6, T36A)",
  "test": "UV-visible spectrum of reduced enzyme",
  "assay_type": "binding",
  "conditions": "dithionite reduction",
  "data": [
    {"molecule": "Cc1cc2c(cc1C)N(C[C@H](O)[C@H](O)[C@H](O)COP(=O)(O)O)c1[nH]c(=O)[nH]c(=O)c1N2", "note": "[FMNhq]", "values": [
      {"measurement": "UV-visible spectrum of reduced enzyme", "value": "UV-visible spectrum of reduced GluER-T36A (FMNhq)"}
    ]}
  ]
}
